Counter-ions that a name gives are not always drawn. Like-named read-outs stand apart in the source and are kept apart here.
How the values were obtained:
PKA-N-HiBiT = PKA-N-HiBiT (Homo sapiens, UniProt P17612); experiment: SDR assay, PKA-N-HiBiT
PKA = settings: cited from earlier work
[1] = biological target: T1, ABL1-N-HiBiT kinase domain (Homo sapiens, UniProt P00519); experiment: SDR assay, ABL1-N-HiBiT
T1 sequence (P00519 233-500): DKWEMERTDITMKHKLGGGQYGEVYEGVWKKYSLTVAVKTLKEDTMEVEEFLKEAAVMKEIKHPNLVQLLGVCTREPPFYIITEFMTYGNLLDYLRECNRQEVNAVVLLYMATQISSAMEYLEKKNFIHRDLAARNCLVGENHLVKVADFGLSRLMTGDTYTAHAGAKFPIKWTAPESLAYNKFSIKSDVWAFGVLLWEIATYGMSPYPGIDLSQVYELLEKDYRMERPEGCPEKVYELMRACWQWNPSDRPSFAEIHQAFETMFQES

[2] = biological target: FLuc-C-NLuc (firefly luciferase) (Photinus pyralis, UniProt P08659, form not given/L550V); experiment: SDR assay, FLuc-C-NLuc; settings: - ATP
NLuc = biological target: T2, NLuc (Oplophorus gracilirostris, UniProt Q9GV45, A31E/A60N/A81I/F95D/I117V/K70R/L54V/L99Q/M102K/N193R/P142E/Q151K/Q38R/Q45L/V71I/Y165I); type: biochemical; settings: - ATP
T2 construct: His tag (inferred from IMAC purification); made in house; host or cells: E. coli
Outline: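 Test compounds added to 1 nM NLuc in PBS with 0.05% IGEPAL, ± ATP. Nano-Glo reagent added and incubated 10 min before luminescence read.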

[3] = biological target: FLuc-C-HiBiT (firefly luciferase) (Photinus pyralis, UniProt P08659, form not given/L550V); experiment: SDR assay, FLuc-C-HiBiT; settings: for % Activity (max response, + ATP) / % Activity (max response, - ATP): SDR max. response, clade S
P. pyralis FLuc = P. pyralis FLuc (Photinus pyralis, UniProt P08659); experiment: FLuc enzymatic luminescence assay, P. pyralis FLuc; type: biochemical; settings: FLuc enzymatic assay; for IC50: read-out: IC50 or SDR50 (mM) FLuc E
Outline: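 Runs with and without 10 µM ATP: compounds were pre-incubated with FLuc (1–10 nM, PBS pH 7.4) at ambient temperature, light-protected, for 30–60 min. Luminescence was imaged 5 min after adding 10 µM D-luciferin (final). Inhibition was scaled between DMSO neutral and no-enzyme controls.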

FLuc-C-HiBiT = biological target: T3, FLuc-C-HiBiT (Photinus pyralis, UniProt P08659); experiment: biochemical; settings: enzyme activity, 10 uM ATP; read-out: IC50 or SDR50 (mM) / FLuc E
T3 construct: firefly luciferase with C-terminal HiBiT tag, E. coli expressed

[4] = PKA-N-HiBiT qHTS, SDR assay, average maximal response
[5] = annotation yes/no for kinase library compound, source not given
[6] = ABL1-N-HiBiT qHTS, average maximal SDR response
[7] = ABL1-N-HiBiT qHTS, SDR assay, average maximal response

T2 sequence (Q9GV45 other isoform, or with tags, fused parts or gaps with the stated changes): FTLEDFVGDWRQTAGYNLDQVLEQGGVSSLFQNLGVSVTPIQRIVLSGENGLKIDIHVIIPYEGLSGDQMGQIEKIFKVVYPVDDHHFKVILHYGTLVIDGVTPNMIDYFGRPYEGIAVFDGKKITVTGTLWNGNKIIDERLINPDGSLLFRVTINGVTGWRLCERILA
T3 sequence (P08659 whole entry, looked up): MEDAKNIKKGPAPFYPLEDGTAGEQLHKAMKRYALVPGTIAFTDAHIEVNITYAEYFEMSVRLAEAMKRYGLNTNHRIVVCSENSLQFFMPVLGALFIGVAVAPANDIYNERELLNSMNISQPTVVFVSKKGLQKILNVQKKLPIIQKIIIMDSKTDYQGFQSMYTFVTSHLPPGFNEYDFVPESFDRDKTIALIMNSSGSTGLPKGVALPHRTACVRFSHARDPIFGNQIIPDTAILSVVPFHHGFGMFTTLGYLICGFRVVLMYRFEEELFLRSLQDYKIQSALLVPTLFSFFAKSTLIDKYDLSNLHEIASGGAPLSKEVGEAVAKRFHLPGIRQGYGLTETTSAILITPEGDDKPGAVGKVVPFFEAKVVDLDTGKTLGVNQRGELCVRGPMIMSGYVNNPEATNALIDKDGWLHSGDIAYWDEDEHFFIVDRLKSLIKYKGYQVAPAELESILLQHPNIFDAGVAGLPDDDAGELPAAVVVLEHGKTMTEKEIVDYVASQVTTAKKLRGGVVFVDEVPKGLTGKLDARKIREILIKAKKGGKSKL
P. pyralis FLuc, sequence (P08659 whole entry): as the sequence (P08659 whole entry, looked up) above
FLuc-C-HiBiT (firefly luciferase), sequence (P08659 2-550 L550V, form open): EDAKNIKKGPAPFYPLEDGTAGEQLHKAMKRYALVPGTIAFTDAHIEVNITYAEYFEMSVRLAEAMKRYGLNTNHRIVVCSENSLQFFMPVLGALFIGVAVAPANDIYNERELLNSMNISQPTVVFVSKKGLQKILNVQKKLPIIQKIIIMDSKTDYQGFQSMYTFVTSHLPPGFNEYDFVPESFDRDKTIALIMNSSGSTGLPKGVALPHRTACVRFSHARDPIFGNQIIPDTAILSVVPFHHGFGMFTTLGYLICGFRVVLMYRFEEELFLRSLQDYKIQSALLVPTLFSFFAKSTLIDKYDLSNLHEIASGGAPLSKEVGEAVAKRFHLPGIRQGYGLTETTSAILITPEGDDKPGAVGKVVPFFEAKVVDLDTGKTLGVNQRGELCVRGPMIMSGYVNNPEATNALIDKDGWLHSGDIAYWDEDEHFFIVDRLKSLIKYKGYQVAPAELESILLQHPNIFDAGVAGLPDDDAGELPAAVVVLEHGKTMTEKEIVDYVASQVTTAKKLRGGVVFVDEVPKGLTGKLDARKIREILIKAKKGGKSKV
FLuc-C-NLuc (firefly luciferase), sequence (P08659 2-550 L550V, form open): as above

Molecule: PHT-427
- SDR Ave Max Response (PKA-N-HiBiT; [4]): -6.93
- Annotated PKA activity (PKA; [5]): no
- SDR Ave Max Response [1, 6]: 10.06

Molecule: CN1CCN([C@H]2CC[C@H](n3cc(-c4ccc(Oc5ccccc5)cc4)c4c(N)ncnc43)CC2)CC1 [A-419259]
- SDR Ave Max Response (PKA-N-HiBiT; [4]): -12.03
- Annotated PKA activity (PKA; [5]): no
- SDR Ave Max Response [1, 6]: 100.16

Molecule: FC(F)(F)c1ccc(/C=C/c2nc(COc3ccc(CCCCn4ccnn4)cc3)co2)cc1 [Mubritinib]
- SDR Ave Max Response (PKA-N-HiBiT): 6.74
- Annotated PKA activity (PKA): no
- SDR Ave Max Response [1]: 1.25

Molecule: COc1cc(NC(=O)c2cccc(-n3cc(NC(=O)Nc4cccc(C)c4)cn3)c2)cc(OC)c1OC [SR 3576]
- SDR Ave Max Response (PKA-N-HiBiT; [4]): 1.20
- Annotated PKA activity (PKA; [5]): no
- SDR Ave Max Response [1, 6]: 6.18

Molecule: COc1cc2ncnc(Nc3ccc(F)c(Cl)c3)c2cc1OCCCN1CCOCC1 [Gefitinib]
- Annotated PKA activity (PKA; [5]): no

Molecule: CCNC(=O)Nc1ccc(-c2nc3c(c(N4CCOC[C@@H]4C)n2)CCN(c2ncccn2)C3)cc1 [mTOR-IN-1]
- SDR Ave Max Response (PKA-N-HiBiT; [4]): 1.84
- Annotated PKA activity (PKA; [5]): no
- SDR Ave Max Response [1, 6]: 10.90

Molecule: Cn1ncc(NC(=O)c2nc(-c3c(F)cccc3F)sc2N)c1N1CC[C@@H](N)[C@H](F)CC1 [GDC-0339]
- SDR Ave Max Response (PKA-N-HiBiT; [4]): 10.49
- Annotated PKA activity (PKA; [5]): no
- SDR Ave Max Response [1, 7]: 12.78

Molecule: Cc1cc(F)ccc1-c1nc(NC(CO)CO)nc2c1ccc(=O)n2-c1c(F)cccc1F [Dilmapimod]
- SDR Ave Max Response (PKA-N-HiBiT; [4]): 3.69
- Annotated PKA activity (PKA; [5]): no
- SDR Ave Max Response [1, 7]: -3.68

Molecule: STF-083010
- SDR Ave Max Response (PKA-N-HiBiT; [4]): 1.50
- Annotated PKA activity (PKA; [5]): no
- SDR Ave Max Response [1, 6]: -0.63

Molecule: O=C(NC1CCNCC1)c1n[nH]cc1NC(=O)c1c(Cl)cccc1Cl [AT-7519]
- SDR Ave Max Response (PKA-N-HiBiT; [4]): -18.47
- Annotated PKA activity (PKA; [5]): no
- SDR Ave Max Response [1, 6]: 9.60

Molecule: Indirubin
- SDR Ave Max Response (PKA-N-HiBiT; [4]): 5.53
- Annotated PKA activity (PKA; [5]): no
- SDR Ave Max Response [1]: 2.52

Molecule: CCN1C(=O)CNc2ncc(-c3ccc(-c4nc[nH]n4)nc3C)nc21 [CC-115]
- SDR Ave Max Response (PKA-N-HiBiT; [4]): -2.34
- Annotated PKA activity (PKA; [5]): no
- SDR Ave Max Response [1, 7]: 31.14

Molecule: COc1cc2c(cc1OC)-c1[nH]nc(Nc3cccc(F)c3)c1C2 [PDGF RTK inhibitor IV]
- SDR Ave Max Response (PKA-N-HiBiT; [4]): 5.85
- Annotated PKA activity (PKA; [5]): no

Molecule: C=CC(=O)Nc1cc2c(Nc3ccc(F)c(Cl)c3)ncnc2cc1OCCCN1CCOCC1 [Canertinib]
- Annotated PKA activity (PKA; [5]): no

Molecule: CNC(=O)c1ccccc1Sc1ccc2c(/C=C/c3ccccn3)n[nH]c2c1 [Axitinib]
- SDR Ave Max Response (PKA-N-HiBiT; [4]): -3.36
- Annotated PKA activity (PKA; [5]): no

Molecule: PHA-665752
- Annotated PKA activity (PKA; [5]): no

Molecule: CN1CCN(CCOc2cc(OC3CCOCC3)c3c(Nc4c(Cl)ccc5c4OCO5)ncnc3c2)CC1 [Saracatinib]
- SDR Ave Max Response (PKA-N-HiBiT; [4]): 3.81
- Annotated PKA activity (PKA; [5]): no

Molecule: Nc1ncccc1-c1nc2ccc(-c3ccccc3)nc2n1-c1ccc(C2(N)CCC2)cc1 [Miransertib]
- Annotated PKA activity (PKA; [5]): no

Molecule: CO[C@@H](C(=O)N1Cc2n[nH]c(NC(=O)c3ccc(N4CCN(C)CC4)cc3)c2C1)c1ccccc1 [Danusertib]
- SDR Ave Max Response (PKA-N-HiBiT; [4]): 4.52
- Annotated PKA activity (PKA; [5]): no

Molecule: COc1cc2c(Oc3ccc(NC(=O)C4(C(=O)Nc5ccc(F)cc5)CC4)cc3F)ccnc2cc1OCCCN1CCOCC1 [Foretinib]
- Annotated PKA activity (PKA; [5]): no

Molecule: Cc1ccc(NC(=O)c2ccc(CN3CCN(C)CC3)cc2)cc1Nc1nc(-c2cccnc2)cs1 [Masitinib]
- Annotated PKA activity (PKA; [5]): no

Molecule: Cc1cc(C)c(/C=C2\C(=O)Nc3ccccc32)[nH]1 [Semaxanib]
- Annotated PKA activity (PKA; [5]): no

Molecule: Cc1cc(-c2cc(O)ccc2Cl)cc2nnc(Nc3ccc(OCCN4CCCC4)cc3)nc12 [TG 100572 HCl]
- SDR Ave Max Response (PKA-N-HiBiT; [4]): -13.83
- Annotated PKA activity (PKA; [5]): no

Molecule: CC(C)n1nc(-c2cc3cc(O)ccc3[nH]2)c2c(N)ncnc21 [PP 242]
- Annotated PKA activity (PKA): yes

Molecule: C/N=c1\ncc2cc(-c3cc(NC(=O)NCCC(C)(C)C)c(F)cc3C)c(C)nc2[nH]1 [LY-3009120]
- SDR Ave Max Response (PKA-N-HiBiT; [4]): 2.67
- Annotated PKA activity (PKA; [5]): no

Molecule: TAE-684
- SDR Ave Max Response (PKA-N-HiBiT; [4]): 28.42
- EC50 (PKA-N-HiBiT; read-out: PKA SDR Ave SDR50, PKA-N-HiBiT qHTS, SDR assay, average): 9.6 µM
- Annotated PKA activity (PKA; [5]): no

Molecule: Cc1cn(-c2cc(F)cc(NC(=O)c3ccc(C)c(Nc4nccc(-c5cccnc5)n4)c3)c2)cn1 [NSC762950]
- SDR Ave Max Response (PKA-N-HiBiT; [4]): -15.93
- Annotated PKA activity (PKA; [5]): no

Molecule: CCN1CCN(Cc2ccc(NC(=O)Nc3ccc(Oc4cc(NC)ncn4)cc3)cc2C(F)(F)F)CC1 [AST-487]
- Annotated PKA activity (PKA; [5]): yes

Molecule: Cc1cc(NC(=O)c2ccc(C)c(Nc3nccc(-c4cccnc4)n3)c2)cc(-n2cnc(C)c2)c1 [NSC762948]
- SDR Ave Max Response (PKA-N-HiBiT; [4]): -6.66
- Annotated PKA activity (PKA; [5]): no

Molecule: Tozasertib
- SDR Ave Max Response (PKA-N-HiBiT): -1.35
- Annotated PKA activity (PKA; [5]): no

Molecule: Cc1cc(Nc2ncc3cc(-c4c(Cl)cccc4Cl)c(=O)n(C)c3n2)ccc1F [PD 180970]
- SDR Ave Max Response (PKA-N-HiBiT; [4]): -17.64
- Annotated PKA activity (PKA; [5]): no

Molecule: Cc1cn(-c2cccc(NC(=O)c3ccc(C)c(Nc4nccc(-c5cccnc5)n4)c3)c2)cn1 [NSC762949]
- SDR Ave Max Response (PKA-N-HiBiT; [4]): -2.45
- Annotated PKA activity (PKA; [5]): no

Molecule: CN[C@@H]1C[C@H]2O[C@@](C)([C@@H]1OC)n1c3ccccc3c3c4c(c5c6ccccc6n2c5c31)C(=O)NC4 [staurosporine, reference compound]
- Annotated PKA activity (PKA; [5]): yes

Molecule: CSc1cccc(Nc2ncc3cc(-c4c(Cl)cccc4Cl)c(=O)n(C)c3n2)c1 [PD-173955]
- Annotated PKA activity (PKA; [5]): no

Molecule: O=C(Nc1ccc(F)c(Cl)c1)C1CCN(C(=O)c2ncn3c2COC(c2ccccc2)C3)CC1 (stereo not shown) [NCGC00449918-01]
- Efficacy (%) FLuc-C-NLuc SDR (-ATP) [2]: 0.00%
- Efficacy (%) NLuc (- ATP) (NLuc): 0.00%
- % Activity (max response, + ATP) [3]: 238.83%
- % Activity (max response, - ATP) ([3]; - ATP): 49.33%
- pSDR50 (clade S) ([3]; - ATP, dihydro-imidazo-oxazine (clade S)): 4.95
- Efficacy (%) FLuc E (P. pyralis FLuc; Clade S follow-up): -99.81%
- pIC50 or pSDR50 FLuc E (P. pyralis FLuc; Clade S follow-up): 6.16
- IC50 (P. pyralis FLuc; Clade S follow-up): 0.0007 mM
- IC50 (FLuc-C-HiBiT): 0.000989 mM

Molecule: O=C(NCc1ccccc1F)C1CCN(C(=O)c2ncn3c2COC(c2ccccc2)C3)CC1 (stereo not shown) [NCGC00449783-01]
- Efficacy (%) FLuc-C-NLuc SDR (-ATP) [2]: 0.00%
- Efficacy (%) NLuc (- ATP) (NLuc): 14.02%
- % Activity (max response, + ATP) [3]: 339.74%
- % Activity (max response, - ATP) ([3]; - ATP): 0.00%
- pIC50 or pSDR50 FLuc E (P. pyralis FLuc): 5.41
- Efficacy (%) FLuc E (P. pyralis FLuc; Clade S follow-up): -77.35%
- IC50 (P. pyralis FLuc): 0.00393 mM
- IC50 (FLuc-C-HiBiT): 0.00351 mM

Molecule: O=C(NCCc1ccccc1)C1CCN(C(=O)c2ncn3c2COC(c2ccccc2)C3)CC1 (stereo not shown) [NCGC00449794-01]
- Efficacy (%) FLuc-C-NLuc SDR (-ATP) [2]: 0.00%
- Efficacy (%) NLuc (- ATP) (NLuc): 0.00%
- % Activity (max response, + ATP) [3]: 379.45%
- % Activity (max response, - ATP) ([3]; - ATP): 0.00%
- pIC50 or pSDR50 FLuc E (P. pyralis FLuc): 5.66
- Efficacy (%) FLuc E (P. pyralis FLuc; Clade S follow-up): -92.17%
- IC50 (P. pyralis FLuc): 0.00221 mM
- IC50 (FLuc-C-HiBiT): 0.00248 mM

Source: article PMC12064818, “A general assay platform to study protein pharmacology using ligand-dependent structural dynamics” (Nature Communications, 2025)
